Columns and labels:
Format in all cases: biochemical, Chromobacterium violaceum
L-Trp 2',3'-oxidase [1] = assay: Specificity of the reaction (conversion of amino acid derivatives and indole compounds); conditions: for effect of conversion of substrates with free α-amino group on the enzyme: after a few minutes, absorbance at 320 nm rises then decreases
From the text: No conversion could be observed for the aromatic amino acids: N-acetyl-L-phenylalaninamide and N-acetyl-L-tyrosinamide. The same is the case when the indole ring is substituted: 5-hydroxyl L-Trp, N-formyl L-Trp and for the isomers of the D series: D-tryptophan and N-acetyl-D-tryptophan.
This phenomenon is much more rapid when the α-carboxyl functional group is not substituted (L-Trp, comp. I), and results in the formation of an unstable imine (II) which is hydrolysed to give rise to the α-keto compounds (indole-3-pyruvic acid (III) and its amide homologue respectively)--FIG. 6--. It is therefore preferable to block the α-amino functional group so as to avoid any isomerisation phenomenon and to ensure greater stability of the dehydro compound.

L-Trp 2',3'-oxidase [2] = assay: Kinetics of dehydrogenation of substrates by purified L-Trp 2',3'-oxidase (appearance of dehydro product at 330 nm); conditions: substrate of L-Trp 2',3'-oxidase, in the presence of catalase
Protocol: Measurements of the specific activity of the enzyme as well as all the kinetic experiments in the steady state, were performed under the standard conditions defined below:
Substrate: 1 mMN-acetyl-L-tryptophanamide (NATA)
Buffer: 50 mM succinate, pH 5.5
by directly monitoring the appearance of the dehydro product at 330 nm (FIG. 3). The specific activity (As) of fraction Q1 is calculated on the basis of a molar extinction coefficient at 330 nm of 18.8 mM^-1.cm^-1 determined in the laboratory (against ε330 =19.89 mM^-1.cm^-1 in the literature; TAKAI et al. mentioned above). NATA, which represents the smallest peptide chain possible, is used as reference substrate for the enzymatic reaction. The specific activity of the preparation (As) is estimated at 39.5±3.1 units for NATA (an enzymatic unit represents a mole of product formed per second per mole of heme).
The dehydrogenation of NATA was monitored as a function of the pH (pH 3-5, 6-8) at a temperature of 30° C. in 50 mM succinate buffer, pH 5.6. The reaction products are analysed and purified by reversed-phase HPLC and then freeze-dried and analysed by mass spectrometry (desorption by chemical ionisation: DCI). ΔNATA is the only product of the enzymatic reaction which is characterised by HPLC (single peak, γmax 333 nm) and by mass spectrophotometry (MH^+ =244).
The procedure is as in Example 1.7).
All the reactions were performed in the presence of catalase. In each case, the kinetic constants (Kcat and Km) are calculated so as to evaluate the efficiency of the enzyme for each type of substrate.

L-Trp 2',3'-oxidase [3] = assay: Conversion of Trp in proteins by L-Trp 2',3'-oxidase in 24 hours; conditions: standard conditions, E/S ≈ 1/1000, values given as a guide
Protocol: (*): Values given as a guide, giving an idea of the conversion of Trp in
the proteins in 24 hours, under the standard conditions defined in Exampl
As specified above, the accessibility of the tryptophanyl residues, both with respect to the indolyl ring and with respect to the Cα and Cβ protons, plays a major role.

Molecule: CC(=O)N[C@H](Cc1c[nH]c2ccccc12)C(=O)O [N-acetyl-D-tryptophan]
- conversion by the enzyme (specificity of the reaction) (L-Trp 2',3'-oxidase [1]): No conversion

Molecule: N[C@H](Cc1c[nH]c2ccccc12)C(=O)O [D-tryptophan]
- conversion by the enzyme (specificity of the reaction) (L-Trp 2',3'-oxidase [1]): No conversion

Molecule: CSCC[C@H](NC(=O)[C@H](Cc1c[nH]c2ccccc12)NC(=O)CCNC(=O)OC(C)(C)C)C(=O)N[C@@H](CC(=O)O)C(=O)N[C@@H](Cc1ccccc1)C(N)=O [Pentagastrin]
- Kcat/Km (L-Trp 2',3'-oxidase [2]): 10^6 M^-1.s^-1
- Kcat (L-Trp 2',3'-oxidase [2]; 30° C., 50 mM succinate buffer): 32 s⁻¹
- Km (L-Trp 2',3'-oxidase [2]; 30° C., 50 mM succinate buffer): 26 µM

Molecule: NC(=O)[C@@H](N)Cc1c[nH]c2ccccc12 [L-tryptophanamide]
- effect of conversion of substrates with free α-amino group on the enzyme (L-Trp 2',3'-oxidase [1]): complete inhibition of the enzyme

Molecule: O=C(O)CCc1c[nH]c2ccccc12 [indole-3-propionic acid]
- conversion by the enzyme (specificity of the reaction) (L-Trp 2',3'-oxidase [1]): oxidised to indole-3-acrylic acid

Molecule: β-Lactoglobulin: protein substrate, 162 residues, Trp19-Trp51, 32 kDa
- conversion of Trp in the proteins (L-Trp 2',3'-oxidase [3]): 2 % of conversion

Molecule: N[C@@H](Cc1c[nH]c2ccc(O)cc12)C(=O)O [5-hydroxyl L-Trp]
- conversion by the enzyme (specificity of the reaction) (L-Trp 2',3'-oxidase [1]): No conversion

Molecule: O=CN[C@@H](Cc1c[nH]c2ccccc12)C(=O)O [N-formyl L-Trp]
- conversion by the enzyme (specificity of the reaction) (L-Trp 2',3'-oxidase [1]): No conversion

Molecule: NCCc1c[nH]c2ccccc12 [tryptamine]
- conversion by the enzyme (specificity of the reaction) (L-Trp 2',3'-oxidase [1]): no reaction

Molecule: N[C@@H](Cc1c[nH]c2ccccc12)C(=O)O [L-tryptophan]
- effect of conversion of substrates with free α-amino group on the enzyme (L-Trp 2',3'-oxidase [1]): complete inhibition of the enzyme

B1: Catalase: protein substrate, 506 residues, six Trp, 232 kDa (EC 1.11.1.6) (protein, UniProt P00432 2-527, looked up)
Catalase: ADNRDPASDQMKHWKEQRAAQKPDVLTTGGGNPVGDKLNSLTVGPRGPLLVQDVVFTDEMAHFDRERIPERVVHAKGAGAFGYFEVTHDITRYSKAKVFEHIGKRTPIAVRFSTVAGESGSADTVRDPRGFAVKFYTEDGNWDLVGNNTPIFFIRDALLFPSFIHSQKRNPQTHLKDPDMVWDFWSLRPESLHQVSFLFSDRGIPDGHRHMNGYGSHTFKLVNANGEAVYCKFHYKTDQGIKNLSVEDAARLAHEDPDYGLRDLFNAIATGNYPSWTLYIQVMTFSEAEIFPFNPFDLTKVWPHGDYPLIPVGKLVLNRNPVNYFAEVEQLAFDPSNMPPGIEPSPDKMLQGRLFAYPDTHRHRLGPNYLQIPVNCPYRARVANYQRDGPMCMMDNQGGAPNYYPNSFSAPEHQPSALEHRTHFSGDVQRFNSANDDNVTQVRTFYLKVLNEEQRKRLCENIAGHLKDAQLFIQKKAVKNFSDVHPEYGSRIQALLDKYNEEKPKNAVHTYVQHGSHLSAREKANL
- conversion of Trp in the proteins (L-Trp 2',3'-oxidase [3]): 12 % of conversion

From patent US5356794A, “Purified enzymatic preparation derived from chromobacterium violaceum, method for preparing it and its use in the production of α, β-dehydrotryptophanyl-peptides” (priority 1991, dated 1994)
